Assay results as given in US11466044B2 (WAYNE STATE UNIVERSITY, priority 2017, dated 2022).
pIC50: −log10 of the molar value. Structures can show the parent of a compound that is named as a salt. Where two headings read alike, the source gives them in different places.

Legend:
[1] = system: MRSA; experiment: MIC by broth microdilution, MRSA isolates; type: cell-based; conditions: Staphylococcus aureus, MRSA; for MIC: Table 1 (Example 3)
[2] = system: E coli wild type; experiment: MIC by broth microdilution, wild type E coli; type: cell-based; conditions: Escherichia coli; for MIC50: Table 1 (Example 1)
[3] = system: P aeruginosa; experiment: MIC by broth microdilution, P aeruginosa isolates; type: cell-based, Pseudomonas aeruginosa; conditions: for MIC: strain AG220 Pseudomonas aeruginosa ATCC27853, read-out: MIC AG220 P. aerugin; for MIC50: Pseudomonas aeruginosa
[4] = system: E coli carrying specific resistance determinants; experiment: MIC by broth microdilution, E coli carrying specific resistance determinants; type: cell-based; conditions: Escherichia coli
[5] = system: M. abscessus; experiment: MIC by broth microdilution, M. abscessus; type: cell-based; conditions: Mycobacteroides abscessus
[6] = system: wild type bacterial ribosomes; experiment: in-vitro translation assay, bacterial ribosomes; type: biochemical; conditions: for pIC50: bacterial ribosome, read-out: IC50 Bac
Excerpt: (§1) The antiribosomal activity of these compounds was investigated with cell-free translation assays using both wild type bacterial ribosomes and hybrid ribosomes carrying eukaryotic decoding A sites enabling the prediction of selectivity.

[7] = system: A1555G mutant mitochondrial ribosome (human chimeric); experiment: in-vitro translation assay, human chimeric ribosomes, A1555G mutant mitochondrial decoding site; type: biochemical; conditions: Table 3 (Example 3)
Excerpt: as §1

[8] = system: cytosolic ribosome (human chimeric); type: biochemical; conditions: for pIC50: cytosolic, read-out: IC50 Cyt
Excerpt: as §1

[9] = system: mitochondrial ribosome (human chimeric); type: biochemical; conditions: for pIC50: mitochondrial, read-out: IC50 Mit
Excerpt: as §1

[10] = system: Klebsiella pneumonia AG215; experiment: MIC by broth microdilution, Klebsiella pneumonia; type: cell-based; conditions: Klebsiella pneumoniae; strain AG215 Klebsiella pneumonia; read-out: MIC AG215 K. pneumon
[11] = system: Acinetobacter baumannii pittii AG225; experiment: MIC by broth microdilution, Acinetobacter baumannii; type: cell-based; conditions: strain AG225 Acinetobacter baumannii pittii
[12] = system: Enterobacter cloacae AG290; experiment: MIC by broth microdilution, Enterobacter cloacae; type: cell-based; conditions: strain AG290 Enterobacter cloacae; read-out: MIC AG290 E. cloacae
[13] = system: N. gonorrhoeae; experiment: Disk diffusion, N. gonorrhoeae; type: cell-based; conditions: Neisseria gonorrhoeae
[14] = system: M. smegmatis SZ380; experiment: MIC by broth microdilution, M. smegmatis; conditions: Mycolicibacterium smegmatis
[15] = ATCC25922, strain AG212 E. coli (ATCC25922), read-out: MIC AG212 E. coli
[16] = SZ380, read-out: MIC SZ380 M. smegmatis, strain SZ380 Mycobacterium smegmatis

## CCCNC1C(OC2C(N)CC(N)C(O)C2OC2OC(CO)C(OC3OC(CN)C(O)C(O)C3N)C2O)OC(CO)C(O)C1O (stereo not shown) [Compound 128, 2′-N-Propyl-paromomycin acetate salt]
[1]; clinical isolate AG038, read-out: MIC MRSA AG038
  MIC: 8 to 16 mg/L
[1]; clinical isolate AG039, read-out: MIC MRSA AG039
  MIC: > 128 mg/L
[1]; clinical isolate AG042, read-out: MIC MRSA AG042
  MIC: > 128 mg/L
[1]; clinical isolate AG044, read-out: MIC MRSA AG044
  MIC: 4 mg/L
[2]; [15]
  MIC: 4 mg/L
[2]; WT, Table 4 (Example 3), read-out: MIC E. coli WT
  MIC: 2 mg/L
[2]; WT, Table 5 (Example 3), read-out: MIC E. coli WT
  MIC: 2 mg/L
[2]; clinical isolate AG001, Table 1 (Example 3), read-out: MIC E coli AG001
  MIC: 16 mg/L
[2]; clinical isolate AG003, Table 1 (Example 3), read-out: MIC E coli AG003
  MIC: 16 mg/L
[2]; clinical isolate AG055, Table 1 (Example 3), read-out: MIC E coli AG055
  MIC: 16 mg/L
[3]
  MIC: > 64 mg/L
[4]; read-out: MIC E. coli AAC(2′) AG106
  MIC: 2 mg/L
[4]; read-out: MIC E. coli AAC(2′) pH434
  MIC: 4 mg/L
[4]; read-out: MIC E. coli pGB2armA armA
  MIC: 4 to 8 mg/L
[4]; read-out: MIC E. coli pH434 AAC(2′)-Ib
  MIC: 4 mg/L
[5]; ATCC19977, ATCC 19977 WT, Table 5 (Example 3), read-out: MIC M. abscessus ATCC 19977 WT
  MIC: 32 mg/L
[5]; read-out: MIC M. abscessus engineered Δeis2
  MIC: 1 mg/L
[5]; ATCC, Table 4 (Example 3), read-out: MIC M. abscessus ATCC
  MIC: 32 mg/L
[5]; Clin. Isol., Table 4 (Example 3), read-out: MIC M. abscessus Clin. Isol.
  MIC: 64 mg/L
[6]; Table 4 (Example 3)
  pIC50: 7.30
[6]; compared with the parent compound
  selectivity for the bacterial ribosome over mitochondrial (wild type, A1555G mutant) and cytosolic ribosomes, in words: increased selectivity for the bacterial ribosome
[7]
  Selectivity for Binding to the Bacterial Ribosome over the Mutant Mitochondrial Ribosome: 763
[8]; Table 3 (Example 3)
  Selectivity for Binding to the Bacterial Ribosome over the Cytosolic Ribosome: 425
[8]; Table 4 (Example 3)
  pIC50: 4.68
[9]; Table 3 (Example 3)
  Selectivity for Binding to the Bacterial Ribosome over the Mitochondrial Ribosome: 3066
[9]; Table 4 (Example 3)
  pIC50: 3.82
[10]
  MIC: 2 mg/L
[11]
  MIC: 4 mg/L
[12]
  MIC: 2 mg/L
[13]
  zone of inhibition at 25 nmol/disc: 11 mm
[14]; SZ380, read-out: MIC M. smegmatis SZ380 WT, SZ380 WT, Table 5 (Example 3)
  MIC: 2 mg/L
[14]; [16]
  MIC: 2 mg/L

## NC[C@@H]1O[C@H](O[C@@H]2C(O)[C@H](O[C@@H]3C(O)[C@H](N)CC(N)[C@H]3O[C@H]3OC(CO)[C@@H](O)[C@H](O)C3N)O[C@@H]2CNC=O)C(N)C(O)[C@@H]1O (stereo partly shown) [Compound 137, 5″-Deoxy-5″-formamido-paromomycin acetate salt]
[1]; read-out: MIC50 MRSA AG39
  MIC50: > 128 mg/L
[1]; read-out: MIC50 MRSA AG42
  MIC50: > 128 mg/L
[1]; strain AG38, Table 1 (Example 1), read-out: MIC50 MRSA AG38
  MIC50: 4 mg/L
[1]; strain AG44, Table 1 (Example 1), read-out: MIC50 MRSA AG44
  MIC50: 2 to 4 mg/L
[2]; AG006 wt, Table 2 (Example 1), read-out: MIC E coli AG006 wt
  MIC: 1 mg/L
[2]; AG102 wt, Table 2 (Example 1), read-out: MIC E coli AG102 wt
  MIC: 1 mg/L
[2]; AG160 wt, Table 2 (Example 1), read-out: MIC E coli AG160 wt
  MIC: 2 mg/L
[2]; [15]
  MIC: 2 mg/L
[2]; WT, Table 3 (Example 1), read-out: MIC WT
  MIC: 1 to 2 mg/L
[2]; clinical isolate AG160 WT, Table 2 (Example 4), read-out: MIC AG160 E. coli WT
  MIC: 2 mg/L
[2]; engineered strain pH430 WT, Table 2 (Example 4), read-out: MIC pH430 E. coli WT
  MIC: 1 to 2 mg/L
[2]; strain AG01, read-out: MIC50 E coli AG01
  MIC50: 4 mg/L
[2]; strain AG03, read-out: MIC50 E coli AG03
  MIC50: 4 mg/L
[2]; strain AG55, read-out: MIC50 E coli AG55
  MIC50: 4 mg/L
[3]; read-out: MIC50 P aeruginosa AG31
  MIC50: 128 mg/L
[3]; read-out: MIC50 P aeruginosa AG32
  MIC50: 128 mg/L
[3]; read-out: MIC50 P aeruginosa AG33
  MIC50: > 128 mg/L
[3]; read-out: MIC50 P aeruginosa AG86
  MIC50: > 128 mg/L
[3]
  MIC: > 64 mg/L
[4]; read-out: MIC AG037 E. coli APH(3′)-III
  MIC: 128 mg/L
[4]; read-out: MIC AG163 E. coli APH(3′)-I
  MIC: 64 mg/L
[4]; read-out: MIC AG166 E. coli APH(3′)-II
  MIC: > 128 mg/L
[4]; read-out: MIC APH(3)-VI
  MIC: > 64 mg/L
[4]; read-out: MIC APH(3′)-I
  MIC: > 64 mg/L
[4]; read-out: MIC APH(3′)-II
  MIC: > 64 mg/L
[4]; read-out: MIC APH(3′)-III
  MIC: > 64 mg/L
[4]; read-out: MIC E coli AG007 ANT(3″) AAC(3)-I
  MIC: 4 mg/L
[4]; read-out: MIC E coli AG103 ArmA
  MIC: 8 mg/L
[4]; read-out: MIC E coli AG163/164 APH(3′)-Ia
  MIC: 32 to 64 mg/L
[4]; read-out: MIC E coli AG166 APH(3′)-IIa
  MIC: > 128 mg/L
[4]; read-out: MIC pH421 E. coli APH(3′)-I
  MIC: > 64 mg/L
[4]; read-out: MIC pH422 E. coli APH(3′)-II
  MIC: > 64 mg/L
[4]; read-out: MIC pH423 E. coli APH(3′)-VI
  MIC: > 64 mg/L
[6]; Table 3 (Example 1)
  pIC50: 7.40
[8]; Table 3 (Example 1)
  pIC50: 4.05
[9]; Table 3 (Example 1)
  pIC50: 3.84
[10]
  MIC: 1 mg/L
[11]
  MIC: 2 mg/L
[12]
  MIC: 1 to 2 mg/L
[13]
  zone of inhibition at 25 nmol/disc: 11 mm
[14]; [16]
  MIC: 1 mg/L
